Reference: PubChem BioAssay AID248 (DTP/NCI, 2004)
Values joined by “and” are separate entries in the source; they are usually repeats but may differ in a detail not shown here. Identical values can stand only once. Toxic doses and inconclusive results are not listed. No stated cut-off is given here; in the data, active means T/C of 150% or more; inactive means T/C below 125%.

System: L1210 leukemia ip in BDF1 mice, survival T/C
Test: NCI In Vivo Anticancer Drug Screen. Data for tumor model L1210 Leukemia (intraperitoneal) in B6D2F1 (BDF1) mice
Settings: endpoint: mean survival time, higher = longer survival
Outline: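 Read-out is survival time, reported as the treated-group measurement over the vehicle-control measurement.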

[1] = dose: 100.0 mg/kg/injection, schedule: Q04DX003 (ip), vehicle: Klucel (hydroxypropylcellulose) (HPC)
[2] = dose: 200.0 mg/kg/injection, schedule: Q04DX003 (ip), vehicle: Klucel (hydroxypropylcellulose) (HPC)
[3] = dose: 50.0 mg/kg/injection, schedule: Q01DX009 (ip), vehicle: saline with Tween-80
[4] = dose: 100.0 mg/kg/injection, schedule: Q04DX003 (ip), vehicle: saline with Tween-80
[5] = dose: 200.0 mg/kg/injection, schedule: Q01DX009 (ip), vehicle: saline with Tween-80
[6] = dose: 200.0 mg/kg/injection, schedule: Q04DX003 (ip), vehicle: saline with Tween-80
[7] = dose: 100.0 mg/kg/injection, schedule: Q01DX009 (ip), vehicle: Klucel (hydroxypropylcellulose) (HPC)
[8] = dose: 200.0 mg/kg/injection, schedule: Q01DX009 (ip), vehicle: Klucel (hydroxypropylcellulose) (HPC)
[9] = dose: 400.0 mg/kg/injection, schedule: Q01DX009 (ip), vehicle: Klucel (hydroxypropylcellulose) (HPC)
[10] = dose: 400.0 mg/kg/injection, schedule: Q04DX003 (ip), vehicle: Klucel (hydroxypropylcellulose) (HPC)
[11] = dose: 50.0 mg/kg/injection, schedule: Q01DX001 (ip), vehicle: saline
[12] = dose: 100.0 mg/kg/injection, schedule: Q01DX001 (ip), vehicle: saline
[13] = dose: 200.0 mg/kg/injection, schedule: Q01DX001 (ip), vehicle: saline
[14] = dose: 400.0 mg/kg/injection, schedule: Q01DX001 (ip), vehicle: saline
[15] = dose: 100.0 mg/kg/injection, schedule: Q01DX005 (ip), vehicle: saline
[16] = dose: 200.0 mg/kg/injection, schedule: Q01DX005 (ip), vehicle: saline
[17] = dose: 400.0 mg/kg/injection, schedule: Q04DX003 (ip), vehicle: saline with Tween-80
[18] = dose: 50.0 mg/kg/injection, schedule: Q01DX009 (ip), vehicle: Klucel (hydroxypropylcellulose) (HPC)

Measured: T/C

C=Cc1cc[n+](CCCCC[n+]2ccc(C=C)cc2)cc1
inactive: dose: 100.0 mg/kg/injection, schedule: Q01DX001 (ip), vehicle: carboxymethylcellulose (CMC) 96 % of control | dose: 200.0 mg/kg/injection, schedule: Q01DX001 (ip), vehicle: carboxymethylcellulose (CMC) 98 % of control | dose: 400.0 mg/kg/injection, schedule: Q01DX001 (ip), vehicle: carboxymethylcellulose (CMC) 93 % of control

CCCCCCCCCCCC(=O)NC(=S)Nc1ccccc1F
inactive: [1] 95 % of control | [2] 87 % of control

CC(=O)c1cc(C)c(C)s1
inactive: dose: 12.5 mg/kg/injection, schedule: Q01DX009 (ip), vehicle: saline with Tween-80 107 % of control | dose: 25.0 mg/kg/injection, schedule: Q01DX009 (ip), vehicle: saline with Tween-80 110 % of control | [3] 100 % of control | [4] 90 % of control | [5] 86 % of control | [6] 96 % of control

CC(=O)Nc1cc2c(cc1[N+](=O)[O-])-c1ccc([N+](=O)[O-])cc1C2
inactive: [7] 95 % of control | [1] 93 % of control | [8] 89 % of control | [2] 91 % of control | [9] 94 % of control | [10] 94 % of control

CN1CN(c2ccccc2)C2(CCN(C3(c4ccccc4)CCCCC3)CC2)C1=O
inactive: [11] 102 % of control | [12] 92 % of control | [13] 94 % of control

Nc1ncnc2c1nc1n2C2OC(CO)C(O)C2O1 (stereo not given)
inactive: [12] 111 % of control | [13] 109 % of control | [14] 111 % of control

O=C(CCCC(=O)NNC(=O)Nc1ccc(Br)cc1)NNC(=O)Nc1ccc(Br)cc1
inactive: [11] 93 % of control | [12] 100 % of control | [13] 96 % of control | [14] 96 % of control

Cc1ccc(C(=O)C=C(C(F)(F)F)C(F)(F)F)cc1
inactive: dose: 6.25 mg/kg/injection, schedule: Q04DX003 (ip), vehicle: saline 94 % of control | dose: 12.5 mg/kg/injection, schedule: Q04DX003 (ip), vehicle: saline 96 % of control | dose: 25.0 mg/kg/injection, schedule: Q04DX003 (ip), vehicle: saline 103 % of control

CCOC(=O)C1CC1(C)c1ccccc1 (stereo not given)
inactive: dose: 100.0 mg/kg/injection, schedule: Q04DX002 (ip), vehicle: saline with Tween-80 97 % of control | dose: 200.0 mg/kg/injection, schedule: Q04DX002 (ip), vehicle: saline with Tween-80 93 % of control | dose: 400.0 mg/kg/injection, schedule: Q04DX002 (ip), vehicle: saline with Tween-80 90 % of control

CCCCNC(=O)Nc1c(C)cccc1Cl
inactive: [7] 101 % of control | [1] 101 % of control | [8] 90 % of control | [2] 97 % of control | [9] 87 % of control | [10] 88 % of control

CN(C)/C=N\c1ncnc2c1ncn2C1OC(CO)C2OC(C)(C)OC21 (stereo not given)
inactive: [15] 104 % of control | [16] 103 % of control

Cc1cc(=O)[nH]c2c(Br)cccc12
inactive: dose: 75.0 mg/kg/injection, schedule: Q04DX003 (ip), vehicle: Klucel (hydroxypropylcellulose) (HPC) 87 % of control | dose: 150.0 mg/kg/injection, schedule: Q04DX003 (ip), vehicle: Klucel (hydroxypropylcellulose) (HPC) 97 % of control | dose: 300.0 mg/kg/injection, schedule: Q04DX003 (ip), vehicle: Klucel (hydroxypropylcellulose) (HPC) 97 % of control

N#Cc1ccc(O)c(-c2ccccn2)c1
inactive: [1] 94 % of control | [2] 93 % of control | [10] 94 % of control

O=[N+]([O-])c1cccc2c([N+](=O)[O-])cccc12
inactive: dose: 100.0 mg/kg/injection, schedule: Q01DX009 (ip), vehicle: saline sonified 107 % of control | [1] 95 % of control | dose: 200.0 mg/kg/injection, schedule: Q01DX009 (ip), vehicle: saline sonified 101 % of control | [2] 92 % of control | dose: 400.0 mg/kg/injection, schedule: Q01DX009 (ip), vehicle: saline sonified 109 % of control | [10] 90 % of control

Cc1ccc(C(=O)OCc2ccccc2CN2CCOCC2)cc1
inactive: dose: 100.0 mg/kg/injection, schedule: Q04DX002 (ip), vehicle: Klucel (hydroxypropylcellulose) (HPC) 100 % of control | dose: 200.0 mg/kg/injection, schedule: Q04DX002 (ip), vehicle: Klucel (hydroxypropylcellulose) (HPC) 103 % of control | dose: 400.0 mg/kg/injection, schedule: Q04DX002 (ip), vehicle: Klucel (hydroxypropylcellulose) (HPC) 92 % of control

CCCCC[CH2][Sn]([I])([CH2]C)[CH2]C
inactive: dose: 1.56 mg/kg/injection, schedule: Q01DX009 (ip), vehicle: saline 95 % of control | dose: 3.13 mg/kg/injection, schedule: Q01DX009 (ip), vehicle: saline 90 % of control

CC(COC(=O)c1ccc(N)cc1)NC1CCCCC1 (stereo not given)
inactive: dose: 75.0 mg/kg/injection, schedule: Q01DX001 (ip), vehicle: other 96 % of control | dose: 150.0 mg/kg/injection, schedule: Q01DX001 (ip), vehicle: other 102 % of control

OC1CCCCC1Cc1ccccc1 (stereo not given)
inactive: dose: 100.0 mg/kg/injection, schedule: Q04DX003 (ip), vehicle: gum acacia 102 % of control | dose: 200.0 mg/kg/injection, schedule: Q04DX003 (ip), vehicle: gum acacia 96 % of control | dose: 400.0 mg/kg/injection, schedule: Q04DX003 (ip), vehicle: gum acacia 98 % of control

CSC(=Nc1ccccc1)N(C)c1ccccc1
inactive: [1] 90 % of control | [2] 86 % of control | [10] 88 % of control

OCC1=CCN(CCc2c[nH]c3ccccc23)CC1
inactive: [4] 95 % of control | [6] 88 % of control | [17] 94 % of control

CCC1(C)OC(=O)NC1=O (stereo not given)
inactive: [3] 96 % of control | dose: 100.0 mg/kg/injection, schedule: Q01DX009 (ip), vehicle: saline with Tween-80 101 % of control | [5] 86 % of control

Cc1ccc(SCCn2cnc3c(ncn3Cc3ccccc3)c2=S)cc1
inactive: [4] 96 % of control | [6] 109 % of control | [17] 101 % of control

CCOC(=O)C(c1ccccc1)c1ccccc1
inactive: dose: 100.0 mg/kg/injection, schedule: Q01DX009 (ip), vehicle: other 102 % of control | dose: 200.0 mg/kg/injection, schedule: Q01DX009 (ip), vehicle: other 94 % of control | dose: 400.0 mg/kg/injection, schedule: Q01DX009 (ip), vehicle: other 93 % of control

NC(=O)CC(NC(=O)OCc1ccccc1)C(=O)O (stereo not given)
inactive: [18] 95 % of control | [7] 95 % of control | [8] 109 % of control

Cc1nc2nc(N)[nH]c(=O)c2[nH]c1=O
inactive: dose: 100.0 mg/kg/injection, schedule: Q01DX009 (ip), vehicle: saline 89 % of control | dose: 100.0 mg/kg/injection, schedule: Q04DX003 (ip), vehicle: saline 100 % of control | dose: 200.0 mg/kg/injection, schedule: Q01DX009 (ip), vehicle: saline 88 % of control | dose: 200.0 mg/kg/injection, schedule: Q04DX003 (ip), vehicle: saline 96 % of control | dose: 400.0 mg/kg/injection, schedule: Q04DX003 (ip), vehicle: saline 96 % of control

CCOC(=O)C1(C(=O)OCC)CCC(O)N1C(=O)Cc1ccccc1[N+](=O)[O-] (stereo not given)
inactive: [1] 100 % of control | [2] 103 % of control | [10] 99 % of control

COc1ccc(NC(=O)CC=C(C)C)nn1
inactive: [18] 100 % of control | [7] 100 % of control | [1] 102 % of control | [8] 91 % of control | [2] 104 % of control | [10] 110 % of control

C=CCOCC(O)COP(=O)(O)O (stereo not given) (tested in a mixture with another compound)
inactive: [11] 111 % of control and 107 % of control and 97 % of control | [12] 100 % of control and 107 % of control and 103 % of control | [13] 100 % of control and 97 % of control and 103 % of control | [14] 94 % of control and 103 % of control

CCCCCCCCCCCCCCCCCCNc1nc(SC)ncc1C(=O)OCC
inactive: dose: 25.0 mg/kg/injection, schedule: Q01DX001 (ip), vehicle: saline 103 % of control | [11] 102 % of control | [12] 101 % of control and 102 % of control

O=C(OCC1OC(n2c(=O)[nH]c3scnc3c2=O)C(OC(=O)c2ccccc2)C1OC(=O)c1ccccc1)c1ccccc1 (stereo not given)
inactive: [15] 93 % of control | [16] 86 % of control

CCOc1cc(N)ccc1C
inactive: [7] 97 % of control | [1] 108 % of control | [8] 99 % of control | [2] 97 % of control | [10] 101 % of control

Cc1ccc(S(=O)(=O)OCCCCCCCCCCCCCCOS(=O)(=O)c2ccc(C)cc2)cc1
inactive: [7] 97 % of control | [1] 97 % of control | [8] 98 % of control | [2] 96 % of control | [9] 106 % of control | [10] 92 % of control
